According to patent publication US12077503B2, “Substituted cyclic amides and their use as herbicides” (FMC CORPORATION, priority 2015, dated 2024):

How the values were obtained:
Type in all cases: in vivo
[1] = system: barnyardgrass (Echinochloa crus-galli); experiment: Test G Pre-Emergence Protocol; settings: Echinochloa crus-galli, pre-emergence, 312 h, evaluated after 13 days; for pest or weed control at 15.625 g/ha: 15.625 g ai/ha, read-out: Barnyard grass damage rating (100=total damage to plant; 0=no damage to plant); for pest or weed control at 62.5 g/ha: 62.5 g ai/ha, 100=total damage to plant, 0=no damage to plant, read-out: plant damage rating, Barnyardgrass; for pest or weed control at 250 g/ha: 250 g ai/ha, read-out: Barnyardgrass damage rating (100=total damage to plant; 0=no damage to plant)
Method in brief: (§1)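 Glasshouse pre-emergence test: soil-sown seeds, sprayed after 1 d at 15.625, 62.5 or 250 g/ha. Conditions 24/16° C day/night, 14 h light, 65% humidity, watering twice daily. Rating 13 d post-spray (100 = total damage).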

corn (Zea mays) [2] = experiment: Test G Pre-Emergence Protocol; settings: Zea mays, pre-emergence, 312 h, evaluated after 13 days; for plant injury at 15.625 g/ha: 15.625 g ai/ha; for plant injury at 15.625 g/ha / plant injury at 250 g/ha: read-out: Corn damage rating (100=total damage to plant; 0=no damage to plant); for plant injury at 62.5 g/ha: 62.5 g ai/ha, 100=total damage to plant, 0=no damage to plant, read-out: plant damage rating, Corn; for plant injury at 250 g/ha: 250 g ai/ha
Method in brief: as §1

[3] = system: giant foxtail (Setaria faberi); experiment: Test G Pre-Emergence Protocol; settings: Setaria faberi, pre-emergence, 312 h, evaluated after 13 days; for pest or weed control at 15.625 g/ha: 15.625 g ai/ha; for pest or weed control at 15.625 g/ha / pest or weed control at 250 g/ha: read-out: Foxtail, Giant damage rating (100=total damage to plant; 0=no damage to plant); for pest or weed control at 62.5 g/ha: 62.5 g ai/ha, 100=total damage to plant, 0=no damage to plant, read-out: plant damage rating, Foxtail, Giant; for pest or weed control at 250 g/ha: 250 g ai/ha
Method in brief: as §1

[4] = system: ivy-leaved morning glory (Ipomoea hederacea); experiment: Test G Pre-Emergence Protocol; settings: Ipomoea, pre-emergence, 312 h, evaluated after 13 days; for pest or weed control at 15.625 g/ha: 15.625 g ai/ha, read-out: Morning-glory, Ivy-leaved damage rating (100=total damage to plant; 0=no damage to plant); for pest or weed control at 62.5 g/ha: 62.5 g ai/ha, 100=total damage to plant, 0=no damage to plant, read-out: plant damage rating, Morningglory, Ivy-leaved; for pest or weed control at 250 g/ha: 250 g ai/ha, read-out: Morningglory, Ivy-leaved damage rating (100=total damage to plant; 0=no damage to plant)
Method in brief: as §1

[5] = system: redroot pigweed (Amaranthus retroflexus); experiment: Test G Pre-Emergence Protocol; settings: Amaranthus retroflexus, pre-emergence, 312 h, evaluated after 13 days; for pest or weed control at 15.625 g/ha: 15.625 g ai/ha; for pest or weed control at 15.625 g/ha / pest or weed control at 250 g/ha: read-out: Pigweed, Redroot damage rating (100=total damage to plant; 0=no damage to plant); for pest or weed control at 62.5 g/ha: 62.5 g ai/ha, 100=total damage to plant, 0=no damage to plant, read-out: plant damage rating, Pigweed, Redroot; for pest or weed control at 250 g/ha: 250 g ai/ha
Method in brief: as §1

[6] = system: velvetleaf (Abutilon theophrasti); experiment: Test G Pre-Emergence Protocol; settings: Abutilon theophrasti, pre-emergence, 312 h, evaluated after 13 days; for pest or weed control at 15.625 g/ha: 15.625 g ai/ha; for pest or weed control at 15.625 g/ha / pest or weed control at 250 g/ha: read-out: Velvetleaf damage rating (100=total damage to plant; 0=no damage to plant); for pest or weed control at 62.5 g/ha: 62.5 g ai/ha, 100=total damage to plant, 0=no damage to plant, read-out: plant damage rating, Velvetleaf; for pest or weed control at 250 g/ha: 250 g ai/ha
Method in brief: as §1

[7] = system: barnyardgrass (Echinochloa crus-galli); experiment: Test G Post-Emergence Protocol; settings: Echinochloa crus-galli, post-emergence, 312 h; for pest or weed control at 15.625 g/ha: 15.625 g ai/ha, evaluated after 13 days (100=total damage to plant; 0=no damage to plant), read-out: Barnyardgrass damage rating; for pest or weed control at 62.5 g/ha: 62.5 g ai/ha, read-out: Barnyardgrass damage rating (100=total damage to plant; 0=no damage to plant); for pest or weed control at 62.5 g/ha / pest or weed control at 250 g/ha: evaluated after 13 days; for pest or weed control at 250 g/ha: 250 g ai/ha, read-out: damage to plant, Barnyardgrass (100=total damage to plant; 0=no damage to plant)
Method in brief: (§2)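 A glasshouse post-emergence test: 8-day-old plants sprayed at 15.625, 62.5 or 250 g/ha, then grown at 24/16 °C day/night with 14 h light and 65% humidity. Damage rated 13 days later, 0–100.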

corn (Zea mays) [8] = experiment: Test G Post-Emergence Protocol; settings: Zea mays, post-emergence, 312 h; for plant injury at 15.625 g/ha: 15.625 g ai/ha, evaluated after 13 days (100=total damage to plant; 0=no damage to plant), read-out: Corn damage rating; for plant injury at 62.5 g/ha: 62.5 g ai/ha, read-out: Corn damage rating (100=total damage to plant; 0=no damage to plant); for plant injury at 62.5 g/ha / plant injury at 250 g/ha: evaluated after 13 days; for plant injury at 250 g/ha: 250 g ai/ha, read-out: damage to plant, Corn (100=total damage to plant; 0=no damage to plant)
Method in brief: as §2

[9] = system: giant foxtail (Setaria faberi); experiment: Test G Post-Emergence Protocol; settings: Setaria faberi, post-emergence, 312 h; for pest or weed control at 15.625 g/ha: 15.625 g ai/ha, evaluated after 13 days (100=total damage to plant; 0=no damage to plant), read-out: Foxtail, Giant damage rating; for pest or weed control at 62.5 g/ha: 62.5 g ai/ha, read-out: Foxtail, Giant damage rating (100=total damage to plant; 0=no damage to plant); for pest or weed control at 62.5 g/ha / pest or weed control at 250 g/ha: evaluated after 13 days; for pest or weed control at 250 g/ha: 250 g ai/ha, read-out: damage to plant, Foxtail, Giant (100=total damage to plant; 0=no damage to plant)
Method in brief: as §2

[10] = system: ivy-leaved morning glory (Ipomoea hederacea); experiment: Test G Post-Emergence Protocol; settings: Ipomoea, post-emergence, 312 h; for pest or weed control at 15.625 g/ha: 15.625 g ai/ha, evaluated after 13 days (100=total damage to plant; 0=no damage to plant), read-out: Morningglory, Ivy-leaved damage rating; for pest or weed control at 62.5 g/ha: 62.5 g ai/ha, read-out: Morningglory, Ivy-leaved damage rating (100=total damage to plant; 0=no damage to plant); for pest or weed control at 62.5 g/ha / pest or weed control at 250 g/ha: evaluated after 13 days; for pest or weed control at 250 g/ha: 250 g ai/ha, read-out: damage to plant, Morningglory, Ivy-leaved (100=total damage to plant; 0=no damage to plant)
Method in brief: as §2

[11] = system: redroot pigweed (Amaranthus retroflexus); experiment: Test G Post-Emergence Protocol; settings: Amaranthus retroflexus, post-emergence, 312 h; for pest or weed control at 15.625 g/ha: 15.625 g ai/ha, evaluated after 13 days (100=total damage to plant; 0=no damage to plant), read-out: Pigweed, Redroot damage rating; for pest or weed control at 62.5 g/ha: 62.5 g ai/ha, read-out: Pigweed, Redroot damage rating (100=total damage to plant; 0=no damage to plant); for pest or weed control at 62.5 g/ha / pest or weed control at 250 g/ha: evaluated after 13 days; for pest or weed control at 250 g/ha: 250 g ai/ha, read-out: damage to plant, Pigweed, Redroot (100=total damage to plant; 0=no damage to plant)
Method in brief: as §2

[12] = system: velvetleaf (Abutilon theophrasti); experiment: Test G Post-Emergence Protocol; settings: Abutilon theophrasti, post-emergence, 312 h; for pest or weed control at 15.625 g/ha: 15.625 g ai/ha, evaluated after 13 days (100=total damage to plant; 0=no damage to plant), read-out: Velvetleaf damage rating; for pest or weed control at 62.5 g/ha: 62.5 g ai/ha, read-out: Velvetleaf damage rating (100=total damage to plant; 0=no damage to plant); for pest or weed control at 62.5 g/ha / pest or weed control at 250 g/ha: evaluated after 13 days; for pest or weed control at 250 g/ha: 250 g ai/ha, read-out: damage to plant, Velvetleaf (100=total damage to plant; 0=no damage to plant)
Method in brief: as §2

| SMILES | pest or weed control at 15.625 g/ha [1] [%] | pest or weed control at 62.5 g/ha [1] [%] | pest or weed control at 250 g/ha [1] [%] | plant injury at 15.625 g/ha (corn (Zea mays) [2]) [%] | plant injury at 62.5 g/ha (corn (Zea mays) [2]) [%] | plant injury at 250 g/ha (corn (Zea mays) [2]) [%] | pest or weed control at 15.625 g/ha [3] [%] | pest or weed control at 62.5 g/ha [3] [%] | pest or weed control at 250 g/ha [3] [%] | pest or weed control at 15.625 g/ha [4] [%] | pest or weed control at 62.5 g/ha [4] [%] | pest or weed control at 250 g/ha [4] [%] | pest or weed control at 15.625 g/ha [5] [%] | pest or weed control at 62.5 g/ha [5] [%] | pest or weed control at 250 g/ha [5] [%] | pest or weed control at 15.625 g/ha [6] [%] | pest or weed control at 62.5 g/ha [6] [%] | pest or weed control at 250 g/ha [6] [%] | pest or weed control at 15.625 g/ha [7] [%] | pest or weed control at 62.5 g/ha [7] [%] | other results |
| --- | --- | --- | --- | --- | --- | --- | --- | --- | --- | --- | --- | --- | --- | --- | --- | --- | --- | --- | --- | --- | --- |
| Cc1cc([C@@H]2CN(C)C(=O)[C@H]2C(=O)Nc2cccc(F)c2F)cnc1Cl (racemic) [Compound 1493] | 40 | 90 | 90 | 0 | 0 | 70 | 60 | 80 | 90 | 0 | 0 | 10 | 0 | 0 | 0 | 0 | 0 | 0 | 40 | 70 | pest or weed control at 250 g/ha [7]: 80%; plant injury at 15.625 g/ha (corn (Zea mays) [8]): 10%; plant injury at 62.5 g/ha (corn (Zea mays) [8]): 40%; plant injury at 250 g/ha (corn (Zea mays) [8]): 80%; pest or weed control at 15.625 g/ha [9]: 40%; pest or weed control at 62.5 g/ha [9]: 60%; pest or weed control at 250 g/ha [9]: 60%; pest or weed control at 15.625 g/ha [10]: 0%; pest or weed control at 62.5 g/ha [10]: 0%; pest or weed control at 250 g/ha [10]: 0%; pest or weed control at 15.625 g/ha [11]: 0%; pest or weed control at 62.5 g/ha [11]: 0%; pest or weed control at 250 g/ha [11]: 0%; pest or weed control at 15.625 g/ha [12]: 0%; pest or weed control at 62.5 g/ha [12]: 0%; pest or weed control at 250 g/ha [12]: 0% |
| CN1C[C@H](c2ccc(C(F)(F)F)cc2)[C@@H](C(=O)Nc2cccc(C(F)F)c2)C1=O (racemic) [Compound 1498] | 0 | 0 | 20 | 0 | 0 | 0 | 0 | 0 | 10 | 0 | 0 | 0 | 0 | 0 | 0 | 0 | 0 | 0 | 0 | 0 | pest or weed control at 250 g/ha [7]: 30%; plant injury at 15.625 g/ha (corn (Zea mays) [8]): 0%; plant injury at 62.5 g/ha (corn (Zea mays) [8]): 0%; plant injury at 250 g/ha (corn (Zea mays) [8]): 0%; pest or weed control at 15.625 g/ha [9]: 0%; pest or weed control at 62.5 g/ha [9]: 0%; pest or weed control at 250 g/ha [9]: 30%; pest or weed control at 15.625 g/ha [10]: 0%; pest or weed control at 62.5 g/ha [10]: 0%; pest or weed control at 250 g/ha [10]: 0%; pest or weed control at 15.625 g/ha [11]: 0%; pest or weed control at 62.5 g/ha [11]: 0%; pest or weed control at 250 g/ha [11]: 0%; pest or weed control at 15.625 g/ha [12]: 0%; pest or weed control at 62.5 g/ha [12]: 0%; pest or weed control at 250 g/ha [12]: 0% |
